The subject of test [1] is OCI-AML3 cells. How it is done: LC/MS Metabolite Measurements (Citric Acid Cycle Intermediates and Glutathione) LC/MS metabolite measurements were carried out at the McGill Metabolomics platform. Authentic metabolite standards were purchased from Sigma-Aldrich Co., while the following LC/MS grade solvents and additives were purchased from Fisher: ammonium acetate, formic acid, water, methanol, and acetonitrile. OCI-AML3 cells (5 million cells, quadruplicates, treated with either DMSO or Mubritinib 500 nM for 20 h) were washed twice with ice-cold 150 mM ammonium formate pH 7.2. Metabolites were then extracted using 380 μl of LC/MS grade 50% methanol/50% water mixture and 220 μl of cold acetonitrile. Samples were then homogenized by 1.4 mm ceramic bead beating 2 min at 30 Hz (TissueLyser, Qiagen). A volume of 300 μl of ice-cold water and 600 μl of ice-cold methylene chloride were added to the lysates. Samples were vortexed and allowed to rest on ice for 10 min for phase separation followed by centrifugation at 4,000 rpm for 5 min. The upper aqueous layer was transferred to a fresh pre-chilled tube. Samples were eventually dried by vacuum centrifugation operating at −4° C. (Labconco) and stored at −80° C. until ready for LC-MS/MS data collection. For LC-MS/MS analysis, specimens were first re-suspended in 50 μl of water and clarified by centrifugation for 15 min at 15,000 rpm at 1° C. Samples were maintained at 4° C. for the duration of the LC-MS/MS analysis in the autosampler.

The subject of test [2] is OCI-AML3 cells. Put plainly: Dose-response curves in AML cell line (6-day culture assay in 384-well plates). In kind it is cell-based. Conditions: FIG. 4E. How it is done: (§1) FIGS. 5A-5J show the results on experiments assessing the mode of action of Mubritinib for mediating tumor cell death. FIG. 5A: OCI-AML3 leukemic cells were either pre-incubated for 4 hours with 6 mM N-acetyl-cysteine (NAC), a reactive oxygen species (ROS) scavenger, or with vehicle (water) before being treated with 100 nM Mubritinib for 24 h or vehicle (DMSO). […] FIGS. 5C and 5D show the levels of reduced and oxidized levels of glutathione, respectively, in OCI-AML3 treated or not with Mubritinib, as detected by liquid chromatography-mass spectrometry (LC/MS). […] FIG. 5G is a graph depicting dose-response curves upon Mubritinib treatment (6-day culture assay in 384-well plates) of OCI-AML3 and OCI-AML5 cell lines. FIGS. 5H-J are graphs depicting dose-response curves following treatment of OCI-AML3 and OCI-AML5 cell lines with other ETC inhibitors, namely Oligomycin (inhibitor of complex V, FIG. 5H), Rotenone (inhibitor of complex I, FIG. 5I) and Deguelin (inhibitor of complex I, FIG. 5J).
OCI-AML3 cells were maintained in alpha-MEM, 20% FBS whereas breat tumor BT474 cells were maintained in DMEM 10% FBS.
(§2) Patient cells were seeded in 384-well plates at a density of 5,000 cells in 50 μL per well. In the initial screen, compounds were added to seeded cells in serial dilutions (10 dilutions, 1:3, starting from 10 μM or 20 μM), in duplicates. Cells treated with 0.1% DMSO without additional compound were used as negative controls. Viable cell counts per well were evaluated after 6 days of culture using the CellTiterGlo® assay (Promega®) according to the manufacturer's instruction. The percent of inhibition was calculated as follows: 100−(100×(mean luminescence(compound)/mean luminescence(DMSO)); where mean-luminescence(compound) corresponds to the average of luminescent signals obtained for the compound-treated cells, and mean-luminescence(DMSO) corresponds to the average of luminescent signals obtained for the control DMSO-treated cells.

Test [3] concerns mitochondrial electron transfer chain (ETC) complex I. Particulars: cell free assay (FIG. 5F). How it is done: as §1
For another test, the system named is AML patient specimens. Put plainly: Cell dose-response viability assay on AML patient specimens (primary and validation screen). Format: cell-based, human. Conditions: Homo sapiens; poor prognostic triple-mutated specimens (FIG. 3G); read-out: median EC50 in AML specimens with simultaneous mutations in NPM1, DNMT3A and FLT3-ITD. How it is done:
frozen AML mono-nucleated cells were thawed at 37° C. in Iscove's modified Dulbecco's medium (IMDM) containing 20% FBS and DNase I (100 μg/mL).
as §2

Test [4] deals with Normal primitive CD34-positive cord blood cells. Kind of test: cells. Particulars: Homo sapiens, read-out: EC50 in normal primitive CD34-positive cord blood cells. As to the method:
as §2

The target of test [5] is human epidermal growth factor receptor 2 (ERBB2/HER2) (Homo sapiens, UniProt P04626). Conditions: described in Nagasawa et al.; cited from earlier work.
The test system of test [6] is HOX-high AML patient cells. Put plainly: Primary chemical screen of 60 compounds, cell dose-response viability assay (CellTiterGlo, 6 days). Format: cell-based, human.
Test [7] concerns HOX-med/low AML patient cells. The test is described as above. Format: cell-based, human. Particulars: Homo sapiens, 144 h; primary screen; mean over HOX-med/low patient specimens; 6 days culture; top concentration 10 μM or 20 μM; read-out: MEAN EC50 HOX-med/low.
Setting [8] is: 500 nM, 24 h, relative to DMSO control.

pEC50: −log10 of the molar value.

Chain of human epidermal growth factor receptor 2 (ERBB2/HER2) (P04626 23-1255): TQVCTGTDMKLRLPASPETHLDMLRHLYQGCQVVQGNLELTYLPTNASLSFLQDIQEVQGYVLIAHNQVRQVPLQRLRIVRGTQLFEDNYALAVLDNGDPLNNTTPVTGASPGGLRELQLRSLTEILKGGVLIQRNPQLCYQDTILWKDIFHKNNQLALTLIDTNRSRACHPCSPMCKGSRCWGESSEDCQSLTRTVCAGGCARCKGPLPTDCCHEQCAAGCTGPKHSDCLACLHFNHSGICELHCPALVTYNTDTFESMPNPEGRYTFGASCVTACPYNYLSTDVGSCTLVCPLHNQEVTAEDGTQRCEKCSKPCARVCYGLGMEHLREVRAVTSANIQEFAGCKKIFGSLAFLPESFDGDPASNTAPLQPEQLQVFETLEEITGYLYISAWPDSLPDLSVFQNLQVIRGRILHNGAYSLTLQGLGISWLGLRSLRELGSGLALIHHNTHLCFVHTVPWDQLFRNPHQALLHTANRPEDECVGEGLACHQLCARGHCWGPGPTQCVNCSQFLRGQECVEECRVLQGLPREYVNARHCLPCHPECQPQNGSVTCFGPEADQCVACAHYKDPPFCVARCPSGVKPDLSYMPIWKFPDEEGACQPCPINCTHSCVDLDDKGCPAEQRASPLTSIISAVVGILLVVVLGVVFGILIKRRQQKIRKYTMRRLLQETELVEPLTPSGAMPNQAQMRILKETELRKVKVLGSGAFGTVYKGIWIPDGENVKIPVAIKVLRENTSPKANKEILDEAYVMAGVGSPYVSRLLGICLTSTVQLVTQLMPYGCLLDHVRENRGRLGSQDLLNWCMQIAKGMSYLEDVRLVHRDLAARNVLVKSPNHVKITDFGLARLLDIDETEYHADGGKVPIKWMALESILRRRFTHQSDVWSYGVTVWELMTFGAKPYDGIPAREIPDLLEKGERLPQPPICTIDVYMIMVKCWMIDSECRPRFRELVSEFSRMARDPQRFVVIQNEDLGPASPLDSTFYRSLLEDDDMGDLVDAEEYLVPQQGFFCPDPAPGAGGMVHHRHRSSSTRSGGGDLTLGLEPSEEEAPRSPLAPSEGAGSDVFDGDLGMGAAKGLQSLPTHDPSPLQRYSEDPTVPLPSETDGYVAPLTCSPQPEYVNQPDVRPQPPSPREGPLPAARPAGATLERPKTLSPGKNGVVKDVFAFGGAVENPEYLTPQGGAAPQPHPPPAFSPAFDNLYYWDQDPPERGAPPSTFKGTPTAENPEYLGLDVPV

In the case of `FC(F)(F)c1ccc(/C=C/c2nc(COc3ccc(CCCCn4ccnn4)cc3)co2)cc1` [Mubritinib, 1-(4-{4-[(2-{(E)-2-[4-(trifluoromethyl)phenyl]ethenyl}-1,3-oxazol-4-yl)methoxy]phenyl}butyl)-1H-1,2,3-triazole], the “levels of oxidized glutathione” value in the test on OCI-AML3 cells [1] (setting [8]) is “increased”. Moreover, the “levels of reduced glutathione” value in the test with OCI-AML3 cells [1] (setting [8]) was “decreased”. The level of citrate entry with OCI-AML3 cells [1] (OCI-AML3, Mubritinib 500 nM for 20 h vs DMSO (FIG. 6A)) was “reduces the levels”. The level of alpha-ketoglutarate entry in the test with OCI-AML3 cells [1] (OCI-AML3, Mubritinib 500 nM for 20 h vs DMSO (FIG. 6B)) is given as “reduces the levels”. Besides, the level of succinate entry in the test with OCI-AML3 cells [1] (OCI-AML3, Mubritinib 500 nM for 20 h vs DMSO (FIG. 6C)) was “reduces the levels”. Further, the level of fumarate entry in the test on OCI-AML3 cells [1] (OCI-AML3, Mubritinib 500 nM for 20 h vs DMSO (FIG. 6D)) is given as “reduces the levels”. In addition, the level of malate result in the test on OCI-AML3 cells [1] (OCI-AML3, Mubritinib 500 nM for 20 h vs DMSO (FIG. 6E)) is recorded as “reduces the levels”. Besides, the “sensitivity of OCI-AML3 cells (dose response curves)” value in the test on OCI-AML3 cells [2] is “sensitive”. The “ETC Complex I activity” value in test [3] is reported as “inhibitory effect on ETC Complex I activity”. Moreover, the pEC50 was 7.02 in the test with AML patient specimens; under 6.43 in test [4]; 6.50 in test [6] (Homo sapiens, 144 h, primary screen, mean over HOX-high patient specimens, 6 days culture, top concentration 10 μM or 20 μM, read-out: MEAN EC50 HOX-high); 5.86 in test [7]. In addition, the “inhibition of ERBB2/HER2” value in test [5] is recorded as “potent inhibitor”. The “difference in sensitivity of HOX-high versus HOX-med/low patient cells” value in test [6] (primary screen (FIG. 2B)) was “significantly more sensitive”. The “FOLD CHANGE High/Med-low” value in test [6] (ratio of mean EC50 HOX-high to mean EC50 HOX-med/low) is given as 0.2.

Source of the values: patent US20200188361A1, “USE OF MITOCHONDRIAL ACTIVITY INHIBITORS FOR THE TREATMENT OF POOR PROGNOSIS ACUTE MYELOID LEUKEMIA” (UNIVERSITE DE MONTREAL, priority 2016, published 2020).
